# Test results as given in article PMC11474028, “Lipopeptide antibiotics disrupt interactions of undecaprenyl phosphate with UptA” (Proceedings of the National Academy of Sciences of the …, 2024).
# “Also recorded” adds a separate entry of the source. Like-named read-outs stand apart in the source and are kept apart here.
# B1: UptA (undecaprenyl phosphate transporter A), Bacillus subtilis, wild type (natural protein, UniProt O31823 1-198, looked up)
# chain: MGSLISEILTWLTNMGYAGIAIGLMIEIIPSEIVLAYGGYMVSEGTIGFIGAIIAGVIGGTIAQIFIYWIGRYGGRPFLDKYGKYLLIKKHHIDMSENWFQKYGAGVVFSARFIPVVRHAISIPAGIARMPFLKFVVLTVLAIIPWSILFVYLGIQLGSQWDDVENIAGTYTTPIMILAVVVIALYFVIKKRTAIFKR
# modifications: formylation of the N-terminal methionine
# notes: UptA, DedA family membrane protein of Bacillus subtilis; detailed procedures are in SI Appendix; In equilibrium of monomers and dimers; also called WT; not shown: GFP, C-terminal, cleaved
# Key:
# [1] = target: MurJ; settings: read-out: Kd, MurJ/lipid II; cited from earlier work
# Method: (§1) We explored the binding affinity of UptA toward C55-P by recording mass spectra for solutions containing 2.5 µM UptA and 0 to 40 µM C55-P in 200 mM ammonium acetate, 0.05% LDAO at pH 8.0. […] Further increase in the concentration of C55-P enhanced the intensity of the UptA:C55-P complex, together with the emergence of additional binding events (Fig. 2A). We deconvoluted the spectra ([34]) to extra ...
# [2] = target: T1, UptA (Bacillus subtilis, UniProt O31823); test: Native MS of antibiotic binding to UptA; settings: 2.5 µM UptA, 10 µM C55-P, antibiotic up to 100 µM (polymyxins 100 µM), 0.05% LDAO, 200 mM ammonium acetate, 75 V
# Method: We next investigate how UptA and its complex with C55-P interact with a range of cell-wall targeting antibiotics including the lipopeptides daptomycin and amphomycin. […] We investigated whether daptomycin affects C55-P binding to UptA by recording spectra for solutions containing 2.5 µM UptA, 10 µM C55-P, and different concentrations of daptomycin.
# (§2) Amphomycin and derivatives are known to kill bacteria by forming complexes with free C55-P ([46]), however, whether or not this involves a direct interaction with a protein cellular target is not known. We therefore investigated how amphomycin affects the UptA:C55-P complex. We recorded spectra for solutions containing 2.5 µM UptA, 10 µM C55-P and then equilibrated aliquots with increasing concentrations of amphomycin.
# The amphiphilic nature of daptomycin and amphomycin raises the possibility that these lipopeptide antibiotics may promiscuously bind to UptA in a nonspecific manner. We probe this possibility by recording spectra for UptA:C55-P solutions in the presence of 100 µM polymyxin B and 100 µM polymyxin E. These polymyxins are membrane-disrupting lipopeptides that target the outer membrane lipopolysaccharides in Gram-negative bacteria ([47]) but without a known affinity for C55-P or UptA.
# To this end, we prepared UptA:C55-P mixtures and then equilibrated aliquots with bacitracin and vancomycin.
# (§3) Detailed experimental procedures are provided in SI Appendix. Briefly, UptA (wild type and mutants) was expressed in E. coli C43(DE3) cells (Lucigen) with GFP fusion on the C-terminus and solubilized from the membrane fraction by n-dodecyl-β-D-maltopyranoside (DDM). After purification by affinity chromatography, the GFP was cleaved by TEV protease and removed, and UptA was further purified by size-exclusion chromatography in a buffer containing 20 mM Tris-HCl (pH 8.0), 200 mM NaCl, 0.02% DDM. Before measurements, proteins were buffer-exchanged into 0.05% LDAO, 200 mM ammonium acetate at the desired pH using a centrifugal buffer exchange device (Micro Bio-Spin 6, Bio-Rad). Stock solutions of lipids were prepared from chloroform/methanol solution by evaporating aliquots of known volume in a SpeedVac. After drying, the lipid films were weighed and resuspended to a final concentration of 0.5 mM in 200 mM ammonium acetate and 0.05% LDAO by vertexing. Stock solutions of 0.5 mM amphomycin, aspartocin D, daptomycin, polymyxin B, polymyxin E, and bacitracin were made in the same buffer. All experiments were repeated three times from newly prepared stock solutions. Native mass spectrometry was performed on a Q-Exactive hybrid quadrupole-Orbitrap mass spectrometer (Thermo Fisher Scientific, Bremen, Germany), and lipid identification was performed on an Orbitrap Eclipse Tribrid mass spectrometer (Thermo). […]
# [3] = tested on: UptA:C55-P complex; test: Native MS of UptA:C55-P complex in the presence of antibiotics; assay type: binding, Bacillus subtilis; settings: 2.5 µM UptA, 10 µM C55-P, 0 to 100 µM antibiotic, 75 V; mean of three independent replicates
# Method: as §2
# (A) Mass spectra (6+ charge state) for solutions containing 2.5 µM UptA and 10 µM C55-P incubated with 0 to 100 µM amphomycin. (B) Relative intensity of C55-P bound to UptA in the presence of amphomycin and daptomycin. The bar represents the mean of three independent replicates shown as data points and error bars are SD. […] (C) Fraction of C55-P bound to UptA in the presence of cell wall targeting antibiotics. Each sample contains 2.5 µM UptA, 10 µM C55-P and 100 µM of indicated antibiotic, and spectra were acquired using the same instrument settings and collisional activation of 75 V. The bar represents the mean of three independent replicates shown as data points, and the error bar represents SD. […]
# as §3
# [4] = daptomycin ref 45; vancomycin ref 49, 50; cited from earlier work
# [5] = cited from earlier work
# Source text: To this end, we prepared UptA:C55-P mixtures and then equilibrated aliquots with bacitracin and vancomycin. […] Despite the combined cellular pool of C55-PP and C55-P being limited to ~1.5 × 10^5 molecules per cell ([56]), they mediate the transport of glycan-bearing components of the cell wall peptidoglycan, teichoic acid, and capsular polysaccharid ...
# [6] = target: MurG; settings: read-out: Kd, MurG/lipid I; cited from earlier work
# Method: as §1
# [7] = target: T1, UptA; test: Native MS competition of C55-P and phospholipids for UptA binding; settings: 4 µM UptA and 10 µM C55-P, increasing DOPG (up to 20 µM) or DOPE
# Method: To investigate whether or not C55-P can outcompete phospholipids in binding to UptA, we incubated solutions containing UptA-DOPG with increasing concentrations of C55-P. Spectra were recorded after aliquots of the solution were equilibrated on ice for 15 min. […] We therefore hypothesised that phospholipids should be unable to outcompete C55-P bound to UptA. To test this hypothesis, we incubated UptA with C55-P and then equilibrated aliquots with an increasing concentration of DOPG. […]
# The chloroform layer containing the total lipids was recovered into a clean glass vial, and the organic solvent was evaporated in a SpeedVac for 16 h. Lipid film was resuspended 200 mM ammonium acetate, 0.05% LDAO (pH 8.0) to ~0.5 mg/mL for the binding experiments.
# Sample preparation for native MS
# Before measurements, the protein was buffer-exchanged into 0.05% LDAO, 200 mM ammonium acetate (“MS buffer”) at the desired pH using a centrifugal buffer exchange device (Micro Bio -Spin 6, Bio-Rad). Stock solutions of lipids were prepared from chloroform/methanol solution by evaporating aliquots of known volume in a SpeedVac. After drying, the lipid films were weighed and resuspended to a final concentration of 0.5 mM in 200 mM ammonium acetate (pH8) and 0.05% LDAO by vertexing. Stock solutions of 0.5 mM amphomycin, aspartocin D, daptomycin and bacitracin, were made in the same buffer. All experiments were repeated three times from newly prepared stock solutions.
# About 3 μL protein aliquot was transferred into a gold-coated borosilicate capillary (Harvard Apparatus) and was mounted on the nano ESI source of a Q-Exactive hybrid quadrupole-Orbitrap mass spectrometer (Thermo Fisher Scientific, Bremen, Germany). The instrument settings were 1.2 kV capillary voltage, S-lens RF 200%, argon UHV pressure 3.3 × 10−10 mbar, the capillary temperature was set to 200 °C, and resolution of the instrument was set to 17,500 at a transie nt time of 64 ms. […] The resulting fragments were detected in the Orbitrap (R = 280,000 @ m/z 200), averaging ~500 transients to maximise the signal-to-noise ratio. […]
# [8] = target: T1, UptA; test: Native MS of phospholipid binding to UptA
# Source text: Proteins belonging to the DedA family are a widespread family of transporters and are proposed to flip diverse lipids, including carrier lipids and membrane phospholipids. We therefore probed the interaction of UptA with membrane phospholipids to understand whether the latter could modulate its function. For this purpose, we selected anionic phosphatidylglycerols (PG) and zwitterionic phosphatidylethanolamines (PE), representing the major classes of phospholipid headgroups found in B. subtilis ([41], [42]). We recorded mass spectra of solutions containing 4 µM UptA incubated with 10 µM a15:0-i15:0 PE and 10 µM a15:0-i15:0 PG (a15:0, anteiso-pentadecanoic acid; i15:0, iso-pentadecanoic acid). The fatty acid composition of these lipids closely mimics those of native B. subtilis lipids (see below). The resulting spectra display peaks corresponding to UptA in apo and lipid-bound forms in both cases (Fig. 4 A and B). […] We therefore hypothesize that UptA interacts more favorably with PG than with PE.
# To verify the lipid binding preference of UptA with more native-like lipids, we prepared lipid extracts from B. subtilis membranes (Materials and Methods). We then incubate an aliquot of the resulting crude lipids (SI Appendix, Fig. S8) with UptA. The spectra yielded peaks assigned to UptA in complex with cardiolipins (~1,326 Da) and a range of phospholipids, predominantly 694 Da, 721 Da, 748 Da, and 776 Da species (Fig. 4 D and E). To identify these lipids, we performed tandem MS/MS, isolating the lipid species and subjecting it to collisional activation. […] The fatty acid fragments are mixed populations, predominantly 15:0-15:0, 15:0-17:0, 16:0-16:0, and 16:0-18:1 (SI Appendix, Fig. S9) which are the typical fatty acids from B. subtilis membrane phospholipids ([42]). We therefore conclude that UptA interacts more favorably with the anionic cardiolipins and phosphatidylglycerols than with the zwitterionic phosphatidylethanolamines in the membrane lipid extracts.
# as §3
# Lipid extracts from B. Subtilis
# B. subtilis strain 168 (ATCC 23857) was cultivated in […] LB media at 37 °C until OD600 nm 1.2 under aurobic conditions. Cells were harvested by centrifugation at 4,000 g for 20 minutes and resuspended in 20 mM Tris-HCl (pH 8.0), 150 mM NaCl. Cells were lysed by 5-6 passes through a microfluidizer at 20,000 psi. The lysates were clarified by centrifugation at 4,000 g for 10 minutes, and the totoal membrane was pelleted at 120,000 g for 1 h. The membrane pellet was ressupended […]
# [9] = target: the molecule itself; test: native MS; UptA 2.2 µM (E32A 2.5 µM, with 10 µM C55-P) in 200 mM ammonium acetate pH 8.0, 0.05% LDAO; dimer 9+ charge state isolated and dissociated into protomers by HCD (190 V); more dimer at pH 8.0 than at pH 5.0
molecule,measurement,setting,value
lipid II,Kd,[1],2900 ± 600 nM
daptomycin,binding of antibiotic to UptA (in words),[2],daptomycin interacts with UptA
same,effect of antibiotic on UptA:C55-P complex (in words),[3],does not directly compete against C55-P binding to the protein; also recorded: modest impact
same,complex formation with or sequestration of lipid II (in words),[4],complexing with lipid II
teixobactin,complex formation with or sequestration of C55-PP (in words),[5],form complex with C55-PP
CC(=O)N[C@H]1[C@@H](OP(=O)(O)OP(=O)(O)OC/C=C(/C)CC/C=C(/C)CC/C=C(/C)CC/C=C(/C)CC/C=C(/C)CC/C=C(/C)CC/C=C(/C)CC/C=C(\C)CC/C=C(\C)CC/C=C(\C)CCC=C(C)C)O[C@H](CO)[C@@H](O)[C@@H]1O[C@H](C)C(=O)N[C@@H](C)C(=O)N[C@H](CCC(=O)N[C@@H](CCCCN)C(=O)N[C@H](C)C(=O)N[C@H](C)C(=O)O)C(=O)O [lipid I],Kd,[6],1890 ± 600 nM
bacitracin,complex formation with or sequestration of C55-PP (in words),[5],form complex with C55-PP
same,complex formation with or sequestration of C55-PP (in words),[5]; listed as Bacitracin,sequestration of C55-PP
same,binding of antibiotic to UptA (in words),[2],bind to UptA but with very low intensities
same,effect of antibiotic on UptA:C55-P complex (in words),[3],modestly competes against C55-P binding to UptA
CCCCCCCC/C=C\CCCCCCCC(=O)OC[C@H](COP(=O)(O)OCCN)OC(=O)CCCCCCC/C=C\CCCCCCCC [18:1-18:1 PE],displacement of C55-P from UptA by phospholipid (in words),[7],could not efficiently displace C55-P from UptA
CCCCCCCC/C=C\CCCCCCCC(=O)OC[C@H](COP(=O)(O)OCC(O)CO)OC(=O)CCCCCCC/C=C\CCCCCCCC (stereo partly drawn) [18:1-18:1 PG],"mean relative intensity of UptA in complex with phospholipid, comparison (in words)","[8]; 4 µM UptA with 10 µM lipid (stated for a15:0-i15:0 lipids), mean of three independent replicates","bind to UptA more intensely than 16:0-18:1 PE and 18:1-18:1 PE, respectively"
same,"UptA-lipid complexes formed (stoichiometry, in words)","[8]; 4 µM UptA with 10 µM lipid, native MS",binding of 1 to 2 molecules of DOPG per UptA
same,displacement of C55-P from UptA by phospholipid (in words),[7],C55-P remains bound to UptA even in the presence of excess DOPG (20 µM)
B1,stoichiometry N,[9],2
